{
  "source": "patent US20050085651A1",
  "about": "“Crystal of N-long-chain acylglycine salt, method of production thereof, and detergent composition using said crystal” (AJINOMOTO CO., INC., priority 2003, published 2005)",
  "assay_type_in_all_cases": "physicochemical",
  "key": {"[1]": {"assay": "Average particle diameter by sieving", "description": "Using the GILSONIC AUTOSIEVER (GA-6, manufactured by GILSON), an about 2 g coarsely milled sample (pass through 425μ mesh) was sieved for 5 minutes and the resulting particles were classified by size; the average particle diameter was calculated from the weights of particles in respective classes.\n(§1) The milled products of the crystals obtained in Examples 1-3 and the powder obtained in Comparative Example 2 were examined for dusting (scattering) and water solubility and dispersibility. Also, these powders were sieved and their average particle diameters were determined."}, "[2]": {"assay": "Scattering (dusting) test of dropped powder", "conditions": "second Ex. 1 powder, average particle size 20 μm; relative ratio to Comparative Example 2", "description": "as §1\nScattering was quantified as described below. A 5 g powder sample was dropped by a distance of 1.2 m from the top of a cylinder (diameter: 12.5 cm). Two seconds after the drop, the scattered powder was sucked from the inlet in the base of the cylinder for 6 seconds using a blower; the powder caught by filter paper (GB100R, manufactured by Advantest Corporation) on the blower surface was weighed. This weight was expressed as a relative ratio to the powder weight in Comparative Example 2."}, "[3]": {"assay": "Water solubility: time taken to dissolve powder in water", "conditions": "second Ex. 1 powder, average particle size 20 μm; 1.5 g in 100 g of water at 30° C.", "description": "as §1\nIn this test, solubility is defined as time taken to dissolve 1.5 g of powder in 100 g of water at 30° C."}, "[4]": {"assay": "Water dispersibility (lumping) evaluated by five panelists", "conditions": "second Ex. 1 powder, average particle size 20 μm", "description": "as §1\nDispersibility was evaluated by five panelists. A 1-gram powder sample was placed in the palm of each panelist and rubbed and examined for lumping in the presence of a small amount of water. Findings were evaluated using a three-grade rating system: good (O) for no lumping, acceptable (Δ) for a small amount of lumping, and poor (x) for a large amount of lumping."}, "[5]": {"conditions": "milled product of crystal (Com. Ex. 2: spray-dried powder), sieved"}},
  "data": [
    {"smiles": "CCCCCCCCCCCC(=O)NCC(=O)[O-].[Na+]", "note": "[Ex. 1, N-lauroylglycine Sodium Salt]", "values": [
      {"measurement": "Average particle size", "setting": "[1]; [5]", "value": 85, "unit": "μm"},
      {"measurement": "Average particle size", "setting": "[1]; second Ex. 1 powder (finer)", "value": 20, "unit": "μm"},
      {"measurement": "Scattering", "setting": "[2]", "value": 0.87},
      {"measurement": "Dissolution rate", "setting": "[3]", "value": 341, "unit": "s"},
      {"measurement": "Dispersibility", "setting": "[4]", "value": "◯"}
    ]},
    {"smiles": "CCCCCCCCCCCCCC(=O)NCC(=O)[O-].[Na+]", "note": "[Ex. 3, N-myristoylglycine Sodium Salt]", "values": [
      {"measurement": "Average particle size", "setting": "[1]; [5]", "value": 87, "unit": "μm"}
    ]}
  ]
}
